Patent publication US11007554B2, “Method, system and device for reducing microbial concentration and/or biofilm formation” (EMODs Technology, L.L.C., priority 2018, dated 2021)
Like-named read-outs stand apart in the source and are kept apart here.

System: microbes

Q: What does the source list for OO [hydrogen peroxide]?
A: microbes eliminated (3% hydrogen peroxide together with radiation of a wavelength between 300 and 600 nanometers): 99.999%; microbes eliminated (3% solution of hydrogen peroxide alone): approximately 30%
